Measured values: US4680397A, “Apovincaminol derivative” (Richter Gedeon Vegyeszeti Gyar Rt., priority 1984, dated 1987)
Where a name gives a salt, the structure may show the parent alone.

Experiments:
Type in all cases: biochemical
[1] = target: phosphodiesterase isolated from rat brain; assay: phosphodiesterase inhibition, enzyme isolated from rat brain; conditions: inhibitor concentration giving 50% decrease of enzyme activity, 20 minutes incubation, read-out: 150(μmoles) rat brain
Protocol: (§1) The model experiments were performed by means of phosphodiesterase isolated from animal tissues (rat brain, cattle brain, cattle heart). […] From the test compounds a 1 mmole stock solution was prepared with aqueous hydrochloric acid solution and different amounts of the stock solution were added to the enzyme preparates corresponding to 5×10^-6, 1×10^-5 and 5×10^-5 mole/lit. of the test compound. A solution of papaverine used as reference compound is added to the enzyme preparate in an analogous manner.
(§2) The activity of the solutions of the test compound and papaverine was expressed in percents of the control (enzyme solution without any inhibitory substance, 100%).
(§3) The tests on an enzyme isolated from cattle brain and cattle heart, respectively were carried out in an analogous way.

[2] = target: phosphodiesterase isolated from cattle heart; assay: phosphodiesterase inhibition, enzyme isolated from cattle heart; conditions: inhibitor concentration giving 50% decrease of enzyme activity, 20 minutes incubation, read-out: 150(μmoles) cattle heart
Protocol: as §1, §2, §3

[3] = target: phosphodiesterase isolated from cattle brain; assay: phosphodiesterase inhibition, enzyme isolated from cattle brain; conditions: inhibitor concentration giving 50% decrease of enzyme activity, 20 minutes incubation, read-out: 150(μmoles) cattle brain
Protocol: as §1, §2, §3

Row | Structure (SMILES) | IC50 [1] | IC50 [2] | IC50 [3]
1 | CCC12C=C(COC(C)=O)n3c4c(c5ccccc53)CCN(CC(OC(C)=O)C1)C42 (stereo not drawn) [compound 956, 18β-Acetoxy-apovincaminol acetate] | 30 µM | 25 µM | 30 µM
2 | COc1ccc(Cc2nccc3cc(OC)c(OC)cc23)cc1OC [papaverin hydrochloride, reference compound] | 120 µM | 50 µM | 100 µM
3 | CCC12C=CCN3CCc4c(n(c5cc([N+](=O)[O-])ccc45)C(COC(=O)c4cc(OC)c(OC)c(OC)c4)=C1)C32 (centres unmarked) [compound 889, 11-nitro-17,18-dehydro-apovincaminol 3',4',5'-tri-methoxybenzoate] | 10 µM | 2 µM | 5 µM
4 | CCC12C=C(COC(C)=O)n3c4c(c5ccccc53)CCN(CC(O)C1)C42 (stereo not drawn) [compound 1041, 18β-Hydroxy-apovincaminol acetate] | 120 µM | 60 µM | 100 µM
5 | CCC12C=CCN3CCc4c(n(c5cccc([N+](=O)[O-])c45)C(COC(C)=O)=C1)C32 (centres unmarked) [compound 886, 9-Nitro-17,18-dehydroapovincaminol acetate] | 50 µM |  | 

The remaining molecules from weak to strong by IC50 [1], led by results:

Row | IC50 [1] | IC50 [2] | IC50 [3] | Structure (SMILES)
6 | 30 µM |  |  | CCC12C=CCN3CCc4c(n(c5cc([N+](=O)[O-])ccc45)C(COC(C)=O)=C1)C32 (centres unmarked) [compound 887, 11-nitro-17,18-dehydro-apovincaminol acetate]
7 | 30 µM | 5 µM | 10 µM | CCC12C=CCN3CCc4c(n(c5cccc([N+](=O)[O-])c45)C(COC(=O)c4cc(OC)c(OC)c(OC)c4)=C1)C32 (centres unmarked) [compound 888, 9-Nitro-17,18-dehydroapovincaminol 3',4',5'-trimethoxybenzoate]
8 | 5 µM | 2 µM | 5 µM | CCC12C=C(COC(=O)c3cc(OC)c(OC)c(OC)c3)n3c4c(c5ccccc53)CCN(CC(O)C1)C42 (stereo not drawn) [compound 1079, 18β-Hydroxy-apovincaminol 3',4',5'-trimethoxybenzoate]
